From the C3SDB collision cross section collection

conditions: [M+H-H2O]+; instrument: TW; calibrated with polyalanine and drug standards

Row | Compound | collision cross section (N2)
1 | NCCc1c[nH]c2ccccc12 [TRYPTAMINE] | 124.4 Å²

same assay, conditions: [M+H]+; instrument: TW; calibrated with polyalanine and drug standards

Row | collision cross section (N2) | Compound
2 | 193.1 Å² | COc1cc(NS(C)(=O)=O)ccc1Nc1c2ccccc2nc2ccccc12 [AMSACRINE]
3 | 154.2 Å² | CC(C)=CCc1c(O)cc2oc(C)cc(=O)c2c1O [PEUCENIN]
4 | 259 Å² | C[C@@H]1O[C@@H](OC[C@H]2O[C@@H](Oc3c(-c4ccc(OCCO)c(OCCO)c4)oc4cc(OCCO)cc(O)c4c3=O)[C@H](O)[C@@H](O)[C@@H]2O)[C@H](O)[C@H](O)[C@H]1O [TROXERUTIN]
5 | 241.5 Å² | CCOc1nc2cccc(C(=O)OC(C)OC(=O)OC3CCCCC3)c2n1Cc1ccc(-c2ccccc2-c2nn[nH]n2)cc1 (stereo not drawn) [CANDESARTAN CILEXTIL]
6 | 164.4 Å² | CCc1cccc2c3c([nH]c12)C(CC)(CC(=O)O)OCC3 (stereo not drawn) [ETODOLAC]
7 | 227.2 Å² | COc1cc(-c2coc3cc(O[C@@H]4O[C@H](CO)[C@@H](O)[C@H](O)[C@H]4O)c(OC)c(O)c3c2=O)cc(O)c1OC [IRIDIN]
8 | 153.9 Å² | COC(=O)N=N/C=C1\C=[N+]([O-])c2ccccc2N1O [CARBADOX]
9 | 155.2 Å² | Cc1nnc(NS(=O)(=O)c2ccc(N)cc2)s1 [SULFAMETHIZOLE]
10 | 186.1 Å² | Cc1ccc(-c2cc(C(F)(F)F)nn2-c2ccc(S(N)(=O)=O)cc2)cc1 [CELECOXIB]
11 | 162.1 Å² | COc1cccc(-c2cc(=O)c3cc(OC)ccc3o2)c1 [6,3'-DIMETHOXYFLAVONE]

Row | Compound | collision cross section (N2)
12 | COC(=O)[C@]1(C)CC[C@]2(C)CC[C@]3(C)C4=CC=C5C(=CC(=O)C(O)=C5C)[C@]4(C)CC[C@@]3(C)[C@@H]2C1 [PRISTIMERIN] | 211.2 Å²
13 | COc1cc(OC)c2c(c1)O[C@H](c1ccc(OC)c(OC)c1)[C@@H](O)C2 [CATECHIN TETRAMETHYLETHER] | 174.4 Å²
14 | CC1=C2[C@H]3OC(=O)[C@@H](C)[C@@H]3CC[C@@]2(C)C=CC1=O [SANTONIN] | 154.9 Å²
15 | CC(=O)CCCCn1c(=O)c2c(ncn2C)n(C)c1=O [PENTOXIFYLLINE] | 158.5 Å²
16 | CCCC(C)(COC(N)=O)COC(=O)NC(C)C (stereo not drawn) [CARISOPRODOL] | 149.1 Å²

same assay, conditions: [M+Na]+; instrument: TW; calibrated with polyalanine and drug standards

Row | collision cross section (N2) | Compound
17 | 161.4 Å² | O=Cc1ccccc1O[C@@H]1O[C@H](CO)[C@@H](O)[C@H](O)[C@H]1O [HELICIN]
18 | 174.3 Å² | OC[C@@H](O)[C@@H](O[C@@H]1O[C@H](CO)[C@@H](O)[C@H](O)[C@H]1O)[C@H](O)[C@@H](O)CO [GLUCITOL-4-GUCOPYANOSIDE]
19 | 216.6 Å² | COC(=O)[C@@H]1OC(=O)C2OC23[C@@]1(C)CCC1[C@@]2(C)CCC(=O)C(C)(C)C2C[C@@H](OC(C)=O)[C@]13C (stereo partly drawn) [DIHYDROGEDUNIC ACID, METHYL ESTER]
20 | 233.5 Å² | C[C@@H]1O[C@@H](O[C@H]2[C@H](Oc3cc(O)c4c(c3)O[C@H](c3ccc(O)cc3)CC4=O)O[C@H](CO)[C@@H](O)[C@@H]2O)[C@H](O)[C@H](O)[C@H]1O [NARINGIN]
21 | 292.7 Å² | CC[C@H](C)[C@H]1O[C@]2(CC[C@@H]1C)C[C@@H]1C[C@@H](C/C=C(\C)[C@@H](O[C@H]3C[C@H](OC)[C@@H](O[C@H]4C[C@H](OC)[C@@H](O)[C@H](C)O4)[C@H](C)O3)[C@@H](C)/C=C/C=C3\CO[C@@H]4[C@H](O)C(C)=C[C@@H](C(=O)O1)[C@]34O)O2 [IVERMECTIN]

Row | Compound | collision cross section (N2)
22 | CC[C@@]1([C@@H]2O[C@@H]([C@H]3O[C@@](O)(CO)[C@H](C)C[C@@H]3C)C[C@@H]2C)CC[C@H]([C@]2(C)CC[C@]3(C[C@H](O)[C@@H](C)[C@@H]([C@@H](C)[C@@H](OC)[C@H](C)C(=O)O)O3)O2)O1 [MONENSIN] | 245.1 Å²

same assay, conditions: [M]+; instrument: TW; calibrated with polyalanine and drug standards

Row | collision cross section (N2) | Compound
23 | 205.7 Å² | CCCCCCCCCCCCCC[N+](C)(C)Cc1ccccc1 [BENZALKONIUM CHLORIDE C14]
